Data from paper PMC6112376, “Comprehensive Analyses and Prioritization of Tox21 10K Chemicals Affecting Mitochondrial Function by in-Depth Mechanistic Studies” (Environmental Health Perspectives, 2018).
Where two headings read alike, the source gives them in different places.

Experiments:
rat primary hepatocytes [1] = test system: rat primary hepatocytes
HepG2 cells [2] = conditions: cited from earlier work
HepG2 cells [3] = assay: cells; conditions: Homo sapiens; for IC50: HepG2, read-out: MMP assays IC50 (µM) HepG2; for Emax: HepG2, read-out: MMP assays efficacy (%) HepG2
rat primary hepatocytes [4] = assay: MMP assay in rat primary hepatocytes; conditions: for IC50: read-out: MMP assays IC50 (µM) Rat Hepatocytes
[5] = read-out: MMP assays IC50 (µM) qHTS-HepG2
[6] = read-out: MMP assays IC50 (µM), qHTS-HepG2

Compound | MMP assays efficacy (%) Rat Hepatocytes (rat primary hepatocytes [1]) | MMP assays efficacy (%) qHTS-HepG2 (HepG2 cells [2]) | IC50 (HepG2 cells [2]; [5]) | IC50 (HepG2 cells [3]) | Emax (HepG2 cells [3]) | IC50 (rat primary hepatocytes [4]; Rattus norvegicus, Hepatocyte) | MMP assays IC50 (µM) Rat Hepatocytes (rat primary hepatocytes [4]) | IC50 (HepG2 cells [2]; [6]) | IC50 (rat primary hepatocytes [4])
O=C1c2ccccc2C(=O)c2cc(O)ccc21 [Compound 2-Hydroxyanthraquinone] | -68±21% | -124±4% | 3.31 ± 1.38 µM | 7.08 µM | 120% | 17.3 ± 6.83 µM | – | – | –
Cc1ccc2cc3c(ccc4ccccc43)c3c2c1CC3 [Compound 3-Methylcholanthrene] | inactive | -74±19% | 17.3 ± 13.2 µM | 25.2 µM | 66% | – | inactive | – | –
CC(=O)C(Cl)(Cl)Cl [1,1,1-Trichloropropanone] | -42±17% | -93±13% | 1.22 ± 0.56 µM | 3.16 µM | 123% | 23.7 ± 29.6 µM | – | – | –
Oc1ccc2ccc3cccc4ccc1c2c34 [Compound 1-Hydroxypyrene] | -49±25% | -110±22% | 4.67 ± 1.95 µM | 7.08 µM | 99% | 33.5 ± 2.73 µM | – | – | –
CCCCCCCCSC(=O)Oc1cc(Cl)nnc1-c1ccccc1 [Pyridate] | -59±19% | -97±17% | – | 35.5 µM | 44% | 50.5 ± 8.18 µM | – | 33.1 ± 4.58 µM | –
Cc1cc(C(F)(C(F)(F)F)C(F)(F)F)ccc1NC(=O)c1cccc(I)c1C(=O)NC(C)(C)CS(C)(=O)=O [Flubendiamide] | -80±23% | -87±14% | – | 25.3 µM | 94% | 12.8 ± 8.15 µM | – | 18.7 ± 2.59 µM | –
CCCN(CCC)c1c([N+](=O)[O-])cc(C(F)(F)F)c(N)c1[N+](=O)[O-] [Prodiamine] | -95±8% | -85±11% | – | 8.91 µM | 93% | 25.4 ± 11.7 µM | – | 4.84 ± 0.56 µM | –
CN(C)c1ccc(C(=C2C=CC(=[N+](C)C)C=C2)c2ccc(N(C)C)cc2)cc1 [Gentian violet] | -70±14% | -92±4% | – | 0.35 µM | 92% | 1.34 ± 0.11 µM | – | 0.08 ± 0.04 µM | –
COc1ccc(C(c2ccc(OC)cc2)C(Cl)(Cl)Cl)cc1 [Methoxychlor] | -75±11% | -101±17% | – | 28.2 µM | 88% | 27.7 ± 11 µM | – | 26.3 ± 8.69 µM | –
CC(=O)O[C@H]1C[C@H](O[C@H]2[C@@H](O)C[C@H](O[C@H]3[C@@H](O)C[C@H](OC4CC[C@@]5(C)[C@H](CC[C@@H]6[C@@H]5CC[C@]5(C)[C@@H](C7=CC(=O)OC7)CC[C@]65O)C4)O[C@@H]3C)O[C@@H]2C)O[C@H](C)[C@H]1O[C@@H]1O[C@H](CO)[C@@H](O)[C@H](O)[C@H]1O (stereo partly drawn) [Lanatoside A] | inactive | -69±2% | – | 0.14 µM | 91% | – | inactive | 0.43 ± 0.04 µM | –
Oc1cc(Cl)cc(Cl)c1 [3,5-Dichlorophenol] | -81±35% | -96±8% | 9.79 µM | 11.2 µM | 113% | 46.9 ± 8.44 µM | – | – | –
O=c1c(O)c(-c2ccc(O)c(O)c2)oc2cc(O)cc(O)c12 [Quercetin] | -62±28% | -94±8% | – | 3.16 µM | 96% | – | – | 2.69 ± 2.26 µM | 15.1 ± 6.79 µM
BrC1CCC(Br)C(Br)CCC(Br)C(Br)CCC1Br (stereo not drawn) [1,2,5,6,9,10-Hexabromocyclododecane] | -89±40% | -96±6% | 6.93 ± 1.95 µM | 6.31 µM | 105% | 32 ± 16.5 µM | – | – | –
